{
  "source": "patent US20240408194A1",
  "about": "“DNA ORIGAMI SUBUNIT VACCINE FOR PREVENTION OF SARS-CoV-2 VARIANT INFECTION” (priority 2021, published 2024)",
  "tested_on": "spike and variants",
  "assay_type": "binding, SARS-COV-2",
  "note": "“Also recorded” adds a separate entry of the source.",
  "data": [
    {"substance": "LCB1", "values": [
      {"measurement": "binding affinity for spike and variants", "value": "up to picomolar; also recorded: high affinity"}
    ]}
  ]
}
